Consider 25 compounds from patent US20230295131A1, “INHIBITORS OF RHO-ASSOCIATED COILED-COIL KINASE” (Angion Biomedica Corp., priority 2020, published 2023).

Like-named read-outs stand apart in the source and are kept apart here.

Assay [1] addresses T1, ROCK2 (Homo sapiens, UniProt O75116).
T1 construct: T7 phage fusion (kinase-tagged phage) or DNA tag for qPCR detection
The assay is described as follows: ROCK2 kinase binding affinity, DiscoverX KINOMEscan KdELECT. The settings on record: for ROCK2 Selectivity: selectivity for ROCK2 over ROCK1 from Kd. Summed up:
(§1)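 Competition binding of DNA- or phage-tagged kinase to immobilised ligand beads, with bound kinase quantified by qPCR of eluates.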

Assay [2] has as its target T2, ROCK1 (Homo sapiens, UniProt Q13464).
T2 construct: T7 phage fusion (kinase-tagged phage) or DNA tag for qPCR detection
As to the kind of experiment: ROCK1 kinase binding affinity, DiscoverX KINOMEscan KdELECT. As to conditions: 11-point 3-fold dilution. An outline of the steps: as §1

The mark [3] stands for this setting: KINOMEscan KdELECT, 11-point 3-fold dilution, read-out: Kd (μM) ROCK2.

T1 sequence (O75116 whole entry, the tested form may be a part): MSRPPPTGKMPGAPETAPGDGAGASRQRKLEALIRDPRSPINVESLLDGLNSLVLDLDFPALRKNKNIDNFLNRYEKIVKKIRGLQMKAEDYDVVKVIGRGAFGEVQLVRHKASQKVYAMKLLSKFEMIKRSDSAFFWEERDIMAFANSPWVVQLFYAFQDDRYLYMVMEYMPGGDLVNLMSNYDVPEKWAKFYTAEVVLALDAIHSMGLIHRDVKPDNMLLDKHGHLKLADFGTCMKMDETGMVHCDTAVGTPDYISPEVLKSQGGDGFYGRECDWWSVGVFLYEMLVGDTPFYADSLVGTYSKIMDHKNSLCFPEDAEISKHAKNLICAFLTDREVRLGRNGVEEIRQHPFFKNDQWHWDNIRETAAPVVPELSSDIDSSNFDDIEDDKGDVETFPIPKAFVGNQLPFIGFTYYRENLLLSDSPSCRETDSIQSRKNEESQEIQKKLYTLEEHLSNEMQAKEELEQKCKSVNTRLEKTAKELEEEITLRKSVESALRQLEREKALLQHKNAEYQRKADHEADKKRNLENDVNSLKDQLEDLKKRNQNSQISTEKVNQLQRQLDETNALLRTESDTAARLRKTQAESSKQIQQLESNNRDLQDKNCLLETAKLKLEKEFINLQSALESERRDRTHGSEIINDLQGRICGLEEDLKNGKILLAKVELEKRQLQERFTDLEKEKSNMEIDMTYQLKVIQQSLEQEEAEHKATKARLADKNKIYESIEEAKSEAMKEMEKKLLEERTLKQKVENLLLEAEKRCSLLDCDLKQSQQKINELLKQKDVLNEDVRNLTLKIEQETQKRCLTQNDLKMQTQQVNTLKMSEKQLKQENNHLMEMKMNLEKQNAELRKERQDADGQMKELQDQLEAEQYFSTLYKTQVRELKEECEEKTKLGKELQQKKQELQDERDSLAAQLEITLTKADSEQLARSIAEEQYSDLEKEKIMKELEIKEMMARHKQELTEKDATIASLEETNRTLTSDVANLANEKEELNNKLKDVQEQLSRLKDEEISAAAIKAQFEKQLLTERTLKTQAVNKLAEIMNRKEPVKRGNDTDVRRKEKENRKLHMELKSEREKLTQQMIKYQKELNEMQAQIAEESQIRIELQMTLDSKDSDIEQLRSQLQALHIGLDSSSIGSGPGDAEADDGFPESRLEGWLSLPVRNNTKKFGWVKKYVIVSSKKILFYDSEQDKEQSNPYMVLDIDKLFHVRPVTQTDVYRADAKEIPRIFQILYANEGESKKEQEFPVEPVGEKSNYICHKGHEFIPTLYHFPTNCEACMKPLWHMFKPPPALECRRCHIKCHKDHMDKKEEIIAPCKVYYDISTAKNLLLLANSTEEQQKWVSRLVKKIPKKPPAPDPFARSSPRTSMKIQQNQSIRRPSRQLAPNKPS
T2 sequence (Q13464 whole entry, the tested form may be a part): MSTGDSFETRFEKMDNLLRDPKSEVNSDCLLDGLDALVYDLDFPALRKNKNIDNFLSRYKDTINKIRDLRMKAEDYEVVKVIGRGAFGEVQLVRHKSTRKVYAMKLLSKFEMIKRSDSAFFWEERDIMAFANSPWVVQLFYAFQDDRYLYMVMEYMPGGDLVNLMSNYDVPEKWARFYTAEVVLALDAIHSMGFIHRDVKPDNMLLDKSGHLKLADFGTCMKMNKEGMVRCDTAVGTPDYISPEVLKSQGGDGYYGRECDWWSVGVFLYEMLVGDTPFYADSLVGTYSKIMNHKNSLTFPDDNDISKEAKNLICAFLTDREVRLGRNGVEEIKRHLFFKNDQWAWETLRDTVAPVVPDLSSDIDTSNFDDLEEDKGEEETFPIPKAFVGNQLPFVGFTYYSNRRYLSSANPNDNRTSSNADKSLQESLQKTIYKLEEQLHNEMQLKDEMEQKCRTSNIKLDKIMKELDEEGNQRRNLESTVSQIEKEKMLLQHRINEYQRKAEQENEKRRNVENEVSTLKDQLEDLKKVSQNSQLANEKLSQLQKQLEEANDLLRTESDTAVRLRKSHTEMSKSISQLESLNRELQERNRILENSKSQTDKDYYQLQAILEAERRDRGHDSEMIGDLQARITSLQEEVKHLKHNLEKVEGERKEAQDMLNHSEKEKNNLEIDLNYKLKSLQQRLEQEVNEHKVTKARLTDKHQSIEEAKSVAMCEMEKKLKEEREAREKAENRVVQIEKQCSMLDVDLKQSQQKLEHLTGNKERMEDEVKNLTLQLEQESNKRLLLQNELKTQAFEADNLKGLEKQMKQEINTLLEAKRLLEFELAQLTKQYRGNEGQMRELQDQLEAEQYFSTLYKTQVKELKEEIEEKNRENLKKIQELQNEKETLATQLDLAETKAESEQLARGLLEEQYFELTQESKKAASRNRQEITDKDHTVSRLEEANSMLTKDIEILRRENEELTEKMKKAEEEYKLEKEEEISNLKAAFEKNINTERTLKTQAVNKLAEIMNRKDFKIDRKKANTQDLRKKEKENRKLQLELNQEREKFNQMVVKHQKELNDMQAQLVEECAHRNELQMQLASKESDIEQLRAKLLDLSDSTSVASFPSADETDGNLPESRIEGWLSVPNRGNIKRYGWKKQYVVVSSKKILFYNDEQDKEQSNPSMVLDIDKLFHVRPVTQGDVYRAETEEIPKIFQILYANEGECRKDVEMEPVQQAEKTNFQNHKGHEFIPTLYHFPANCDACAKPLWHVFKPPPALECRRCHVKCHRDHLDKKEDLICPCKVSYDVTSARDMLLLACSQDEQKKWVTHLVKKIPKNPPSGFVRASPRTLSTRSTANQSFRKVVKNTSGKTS

For `O[C@H]1CC[C@@H](Nc2nccc(-c3nccc(C#Cc4ccc5[nH]ncc5c4)n3)n2)C1` [Ex. 82, (1S,3R)-3-((4-((1H-Indazol-5-yl)ethynyl)-[2,4′-bipyrimidin]-2′-yl)amino)cyclopentanol], the Kd – broadly, a measure of binding affinity in units of concentration – in assay [1] (setting [3]) is under 0.01 µM; in assay [2] it was 0.1 to 0.99 µM. For the same compound, in assay [1], the “ROCK2 Selectivity” value is “**** (>500-fold selectivity for ROCK2)”.

Regarding `O=C(CNc1nccc(-c2nccc(C#Cc3ccc4[nH]ncc4c3)n2)n1)N1CCOCC1` [Ex. 41, 2-((4-((1H-Indazol-5-yl)ethynyl)-[2,4′-bipyrimidin]-2′-yl)amino)-1-morpholinoethanone], the results for the Kd in assay [1] (setting [3]) and in assay [2] were under 0.01 µM and 1 to 9.9 µM, respectively. Also, the “ROCK2 Selectivity” value in assay [1] is given as “*** (151 to 500-fold selectivity for ROCK2)”.

Regarding `CN1CCN(C(=O)CNc2nccc(-c3nccc(C#Cc4ccc5[nH]ncc5c4)n3)n2)CC1` [Ex. 73, 2-((4-((1H-Indazol-5-yl)ethynyl)-[2,4′-bipyrimidin]-2′-yl)amino)-1-(4-methylpiperazin-1-yl)ethanone], the dissociation constant Kd fell in the range of 0.01 to 0.099 µM in assay [1] (setting [3]) and 0.1 to 0.99 µM in assay [2]. Moreover, in assay [1], the “ROCK2 Selectivity” value is given as “* (<50-fold selectivity for ROCK2)”.

Turning to `O[C@@H]1CC[C@@H](Nc2nccc(-c3nccc(C#Cc4ccc5[nH]ncc5c4)n3)n2)C1` [Ex. 78, (1R,3R)-3-((4-((1H-Indazol-5-yl)ethynyl)-[2,4′-bipyrimidin]-2′-yl)amino)cyclopentanol], the equilibrium dissociation constant (Kd) in assay [1] (setting [3]) is under 0.01 µM; in assay [2], 1 to 9.9 µM. The “ROCK2 Selectivity” value in assay [1] is “*** (151 to 500-fold selectivity for ROCK2)”.

As to `C(#Cc1ccnc(-c2ccnc(NC[C@H]3CCOC3)n2)n1)c1ccc2[nH]ncc2c1` [Ex. 69, (R)-4-((1H-Indazol-5-yl)ethynyl)-N-((tetrahydrofuran-3-yl)methyl)-[2,4′-bipyrimidin]-2′-amine], the dissociation constant Kd in assay [1] (setting [3]) was under 0.01 µM; in assay [2], 1 to 9.9 µM. In addition, in assay [1], the “ROCK2 Selectivity” value is reported as “*** (151 to 500-fold selectivity for ROCK2)”.

For `Fc1n[nH]c2ccc(C#Cc3ccnc(-c4ccnc(NCC5CCCO5)n4)n3)cc12` (stereo not drawn) [Ex. 50, 4-((3-Fluoro-1H-indazol-5-yl)ethynyl)-N-((tetrahydrofuran-2-yl)methyl)-[2,4′-bipyrimidin]-2′-amine], the dissociation constant Kd in assay [1] (setting [3]) was under 0.01 µM; in assay [2], 1 to 9.9 µM. In addition, the “ROCK2 Selectivity” value in assay [1] is on record as “*** (151 to 500-fold selectivity for ROCK2)”.

As for `[2H]C([2H])(Nc1nccc(-c2nccc(C#Cc3ccc4[nH]ncc4c3)n2)n1)c1ccccn1` [Ex. 66, 4-((1H-Indazol-5-yl)ethynyl)-N-(pyridin-2-ylmethyl-d2)-[2,4′-bipyrimidin]-2′-amine], the dissociation constant (Kd) in assay [1] (setting [3]) was under 0.01 µM; in assay [2], 0.1 to 0.99 µM. Besides, the “ROCK2 Selectivity” value in assay [1] is on record as “** (50 to 150-fold selectivity for ROCK2)”.

For `O=C(O)[C@H]1CC[C@H](Nc2nccc(-c3nccc(C#Cc4ccc5[nH]ncc5c4)n3)n2)CC1` [Ex. 87, (1r,4r)-4-((4-((1H-Indazol-5-yl)ethynyl)-[2,4′-bipyrimidin]-2′-yl)amino)cyclohexanecarboxylic acid], the dissociation constant Kd in assay [1] (setting [3]) was 0.1 to 0.99 µM; in assay [2] it was 1 to 9.9 µM. Moreover, in assay [1], the “ROCK2 Selectivity” value was “* (<50-fold selectivity for ROCK2)”.

Regarding `Fc1cc(CNc2nccc(-c3nccc(C#Cc4ccc5[nH]ncc5c4)n3)n2)ccn1` [Ex. 33, 4-((1H-Indazol-5-yl)ethynyl)-N-((2-fluoropyridin-4-yl)methyl)-[2,4′-bipyrimidin]-2′-amine], the figures for the dissociation constant Kd in assay [1] (setting [3]) and in assay [2] were under 0.01 µM and 1 to 9.9 µM, respectively. Besides, the “ROCK2 Selectivity” value in assay [1] is “*** (151 to 500-fold selectivity for ROCK2)”.

Regarding `Fc1cncc(CNc2nccc(-c3nccc(C#Cc4ccc5[nH]ncc5c4)n3)n2)c1` [Ex. 29, 4-((1H-Indazol-5-yl)ethynyl)-N-((5-fluoropyridin-3-yl)methyl)-[2,4′-bipyrimidin]-2′-amine], the Kd in assay [1] (setting [3]) is 0.1 to 0.99 µM; in assay [2], 1 to 9.9 µM. For the same compound, in assay [1], the “ROCK2 Selectivity” value is listed as “* (<50-fold selectivity for ROCK2)”.

In the case of `O[C@H]1CC[C@H](Nc2nccc(-c3nccc(C#Cc4ccc5[nH]ncc5c4)n3)n2)C1` [Ex. 90, (1S,3S)-3-((4-((1H-Indazol-5-yl)ethynyl)-[2,4′-bipyrimidin]-2′-yl)amino)cyclopentanol], the equilibrium dissociation constant (Kd) in assay [1] (setting [3]) is under 0.01 µM; in assay [2] it was 1 to 9.9 µM. The “ROCK2 Selectivity” value in assay [1] is listed as “*** (151 to 500-fold selectivity for ROCK2)”.

`C[C@@H](O)CNc1nccc(-c2nccc(C#Cc3ccc4[nH]ncc4c3)n2)n1` [Ex. 79, (R)-1-((4-((1H-Indazol-5-yl)ethynyl)-[2,4′-bipyrimidin]-2′-yl)amino)propan-2-ol]: in assay [1], the Kd lay within 0.01 to 0.099 µM and the “ROCK2 Selectivity” value is on record as “** (50 to 150-fold selectivity for ROCK2)”. In assay [2], this compound gave an equilibrium dissociation constant (Kd) of 1 to 9.9 µM.

With `O[C@H]1CC[C@@H](Nc2nccc(-c3nccc(C#Cc4ccn5cnnc5c4)n3)n2)CC1` [Ex. 97, (1s,4s)-4-((4-([1,2,4]Triazolo[4,3-a]pyridin-7-ylethynyl)-[2,4′-bipyrimidin]-2′-yl)amino)cyclohexanol], the dissociation constant Kd in assay [1] (setting [3]) and in assay [2] was 10 to 100 µM throughout. The “ROCK2 Selectivity” value in assay [1] is listed as “* (<50-fold selectivity for ROCK2)”.

Turning to `O=S1(=O)CC[C@@H](Nc2nccc(-c3nccc(C#Cc4ccc5[nH]ncc5c4)n3)n2)C1` [Ex. 88, (R)-3-((4-((1H-Indazol-5-yl)ethynyl)-[2,4′-bipyrimidin]-2′-yl)amino)tetrahydrothiophene 1,1-dioxide], the Kd in assay [1] (setting [3]) was in the range of 0.01 to 0.099 µM; in assay [2], 0.1 to 0.99 µM. Moreover, the “ROCK2 Selectivity” value in assay [1] is listed as “* (<50-fold selectivity for ROCK2)”.

As to `Fc1cc(F)c(F)c(CNc2nccc(-c3nccc(C#Cc4ccc5[nH]nc(F)c5c4)n3)n2)c1` [Ex. 60, 4-((3-Fluoro-1H-indazol-5-yl)ethynyl)-N-(2,3,5-trifluorobenzyl)-[2,4′-bipyrimidin]-2′-amine], the Kd in assay [1] (setting [3]) is 1 to 9.9 µM; in assay [2] it was 10 to 100 µM. The “ROCK2 Selectivity” value in assay [1] is “* (<50-fold selectivity for ROCK2)”.

For `C(#Cc1ccnc(-c2ccnc(NCc3ccccc3)n2)n1)c1ccc2[nH]ncc2c1` [Ex. 14, 4-((1H-Indazol-5-yl)ethynyl)-N-benzyl-[2,4′-bipyrimidin]-2′-amine], the dissociation constant Kd in assay [1] (setting [3]) fell in the range of 0.01 to 0.099 µM; in assay [2], 1 to 9.9 µM. Further, the “ROCK2 Selectivity” value in assay [1] is “* (<50-fold selectivity for ROCK2)”.

On to `CC(Nc1nccc(-c2nccc(C#Cc3ccc4[nH]ncc4c3)n2)n1)c1ccc(F)cn1` (stereo not drawn) [Ex. 28, 4-((1H-Indazol-5-yl)ethynyl)-N-(1-(5-fluoropyridin-2-yl)ethyl)-[2,4′-bipyrimidin]-2′-amine], for which the equilibrium dissociation constant (Kd) in assay [1] (setting [3]) lay in the range of 0.01 to 0.099 µM; in assay [2], 1 to 9.9 µM. Moreover, the “ROCK2 Selectivity” value in assay [1] was “* (<50-fold selectivity for ROCK2)”.

As for `Fc1ccc(CNc2nccc(-c3nccc(C#Cc4cc(F)c5[nH]ncc5c4)n3)n2)nc1` [Ex. 36, 4-((7-Fluoro-1H-indazol-5-yl)ethynyl)-N-((5-fluoropyridin-2-yl)methyl)-[2,4′-bipyrimidin]-2′-amine], the values for the Kd in assay [1] (setting [3]) and in assay [2] were 0.01 to 0.099 µM and 1 to 9.9 µM, respectively. Moreover, the “ROCK2 Selectivity” value in assay [1] is reported as “** (50 to 150-fold selectivity for ROCK2)”.

On to `COc1ccnc(CNc2nccc(-c3nccc(C#Cc4ccc5[nH]ncc5c4)n3)n2)c1` [Ex. 11, 4-((1H-Indazol-5-yl)ethynyl)-N-((4-methoxypyridin-2-yl)methyl)-[2,4′-bipyrimidin]-2′-amine], for which the Kd lay within 0.01 to 0.099 µM in assay [1] (setting [3]) and 0.1 to 0.99 µM in assay [2]. Further, the “ROCK2 Selectivity” value in assay [1] is reported as “** (50 to 150-fold selectivity for ROCK2)”.

On to `O[C@H]1CC[C@@H](Nc2nccc(-c3nccc(C#Cc4ccc5[nH]nc(F)c5c4)n3)n2)C1` [Ex. 94, (1S,3R)-3-((4-((3-Fluoro-1H-Indazol-5-yl)ethynyl)-[2,4′-bipyrimidin]-2′-yl)amino)cyclopentanol], for which the figures for the equilibrium dissociation constant (Kd) in assay [1] (setting [3]) and in assay [2] were under 0.01 µM and 1 to 9.9 µM, respectively. In addition, the “ROCK2 Selectivity” value in assay [1] is “**** (>500-fold selectivity for ROCK2)”.

Consider `Fc1ccnc(CNc2nccc(-c3nccc(C#Cc4ccc5[nH]ncc5c4)n3)n2)c1` [Ex. 10, 4-((1H-Indazol-5-yl)ethynyl)-N-((4-fluoropyridin-2-yl)methyl)-[2,4′-bipyrimidin]-2′-amine], for which the Kd is 0.01 to 0.099 µM in assay [1] (setting [3]) and 1 to 9.9 µM in assay [2]. For the same compound, the “ROCK2 Selectivity” value in assay [1] is given as “** (50 to 150-fold selectivity for ROCK2)”.

As to `C(#Cc1ccnc(-c2ccnc(NCc3ccccn3)n2)n1)c1ccc2[nH]ncc2c1` [Ex. 22, 4-((1H-Indazol-5-yl)ethynyl)-N-(pyridin-2-ylmethyl)-[2,4′-bipyrimidin]-2′-amine], the dissociation constant Kd in assay [1] (setting [3]) lay in the range of 0.01 to 0.099 µM; in assay [2], 1 to 9.9 µM. In addition, in assay [1], the “ROCK2 Selectivity” value is “** (50 to 150-fold selectivity for ROCK2)”.

As to `Cc1ccnc(F)c1CNc1nccc(-c2nccc(C#Cc3ccc4[nH]ncc4c3)n2)n1` [Ex. 70, 4-((1H-Indazol-5-yl)ethynyl)-N-((2-fluoro-4-methylpyridin-3-yl)methyl)-[2,4′-bipyrimidin]-2′-amine], the Kd was 0.01 to 0.099 µM in assay [1] (setting [3]) and 10 to 100 µM in assay [2]. In assay [1], the “ROCK2 Selectivity” value is “**** (>500-fold selectivity for ROCK2)”.

For `C(#Cc1ccnc(-c2ccnc(NCC3CCCCO3)n2)n1)c1ccc2[nH]ncc2c1` (stereo not drawn) [Ex. 76, 4-((1H-Indazol-5-yl)ethynyl)-N-((tetrahydro-2H-pyran-2-yl)methyl)-[2,4′-bipyrimidin]-2′-amine], the Kd in assay [1] (setting [3]) was under 0.01 µM; in assay [2] it was 1 to 9.9 µM. In assay [1], the “ROCK2 Selectivity” value is recorded as “*** (151 to 500-fold selectivity for ROCK2)”.

As to `Fc1ccccc1CNc1nccc(-c2nccc(C#Cc3ccc4[nH]ncc4c3)n2)n1` [Ex. 15, 4-((1H-Indazol-5-yl)ethynyl)-N-(2-fluorobenzyl)-[2,4′-bipyrimidin]-2′-amine], the Kd in assay [1] (setting [3]) lay within 0.01 to 0.099 µM; in assay [2], 10 to 100 µM. In addition, the “ROCK2 Selectivity” value in assay [1] was “*** (151 to 500-fold selectivity for ROCK2)”.
